# Results: patent US20260078105A1, “Novel Aminocarboxymuconate Semialdehyde Decarboxylase Inhibitors” (OrsoBio, Inc., priority 2023, published 2026)
# Target: T1, ACMSD (Mus musculus, UniProt Q8R519)
# T1 construct: endogenous in cells; host or cells: primary mouse hepatocytes (frozen, commercial)
# Assay: Quinolinic acid (QA) levels in primary mouse hepatocytes by LC-MS/MS, as indicator of ACMSD inhibition
# Format: cell-based
# Conditions: 3 μM compound, six hours, 500 μM tryptophan, ratio of QA formed with compound versus wells with no compound (DMSO)
# Procedure: Frozen primary mouse hepatocytes were thawed as per manufacturer's instructions and seeded at a density of 300,000 cells/well of a 6-well plate. After resting for a few hours, the cells were incubated with 3 μM of compound resuspended in DMSO in serum-free William's E media supplemented with 500 μM of tryptophan for six hours. After six hours, the cells were washed with phosphate buffer saline (PBS) and harvested in pre-cooled crashing solution (acetonitrile:methanol:water (40%:40%:20% w/w)) containing internal standard (telmisartan and/or verapamil). Ammonium bicarbonate (15%; 30 μL) was added to the lysates, incubated on dry ice for 10 min, centrifuged for 10 min at 14000 rpm and QA levels were quantified using optimized LC-MS/MS methods using an Atlantis, T3 3 μm, 150×4.6 mm column, and 0.1% formic acid in water and 0.2% formic acid in methanol as mobile phase A and B, respectively. The results are shown in Table 1 as a ratio of the amount of QA formed with compound versus the amount of QA in wells with no compound (DMSO). ACMSD is at the junction of the metabolic pathway of tryptophan. Increased QA levels or decreased PA levels would both be indicative of inhibition of ACMSD. When mouse hepatocytes are treated with the compounds of the invention, increased QA levels are observed and are therefore inhibitors of ACMSD.
# T1 sequence (Q8R519 whole entry): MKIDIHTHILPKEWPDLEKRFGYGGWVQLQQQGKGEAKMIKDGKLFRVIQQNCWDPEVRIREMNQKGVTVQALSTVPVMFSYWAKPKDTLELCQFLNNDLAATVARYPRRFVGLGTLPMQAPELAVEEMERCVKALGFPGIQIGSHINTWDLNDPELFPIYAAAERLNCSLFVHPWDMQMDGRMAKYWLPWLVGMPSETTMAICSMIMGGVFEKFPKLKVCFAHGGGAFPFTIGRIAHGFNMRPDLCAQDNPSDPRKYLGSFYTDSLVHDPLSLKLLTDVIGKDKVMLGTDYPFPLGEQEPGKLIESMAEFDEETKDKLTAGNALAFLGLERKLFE
row,SMILES,Quinolinic acid ratio (Range)
1,"CNC(=O)c1c(-c2ccc(Cl)cc2)c(C#N)c(SCc2nnn[nH]2)[nH]c1=O [Compound 127, 6-(((1H-tetrazol-5-yl)methyl)thio)-4-(4-chlorophenyl)-5-cyano-N-methyl-2-oxo-1,2-dihydropyridine-3-carboxamide]",* (2 to 4)
2,"N#Cc1c(SCc2nnn[nH]2)[nH]c(=O)c(C(=O)N2CCCC2)c1-c1cccc(-c2ccccc2)c1 [Compound 126, 2-(((1H-tetrazol-5-yl)methyl)thio)-4-([1,1′-biphenyl]-3-yl)-6-oxo-5-(pyrrolidine-1-carbonyl)-1,6-dihydropyridine-3-carbonitrile]",** (<4 to 6)
3,"N#Cc1c(SCc2nnn[nH]2)[nH]c(=O)c(C(=O)Nc2ccccc2)c1-c1ccc(Cl)cc1 [Compound 124, 6-(((1H-tetrazol-5-yl)methyl)thio)-4-(4-chlorophenyl)-5-cyano-2-oxo-N-phenyl-1,2-dihydropyridine-3-carboxamide]",** (<4 to 6)
4,"CC(C)Oc1nc(SCc2nnn[nH]2)[nH]c(=O)n1 [Compound 133, 6-(((1H-tetrazol-5-yl)methyl)thio)-4-isopropoxy-1,3,5-triazin-2(1H)-one]",— (<2)
5,"N#Cc1c(SCc2nnn[nH]2)[nH]c(=O)c(C(=O)N2CCCC2)c1-c1ccc(Cl)cc1 [Compound 125, 2-(((1H-tetrazol-5-yl)methyl)thio)-4-(4-chlorophenyl)-6-oxo-5-(pyrrolidine-1-carbonyl)-1,6-dihydropyridine-3-carbonitrile]",** (<4 to 6)
6,"O=C(O)c1cccc(CSc2nc(-c3ccccc3)nc(=O)[nH]2)c1 [Compound 128, 3-(((6-oxo-4-phenyl-1,6-dihydro-1,3,5-triazin-2-yl)thio)methyl)benzoic acid]",* (2 to 4)
7,"N#Cc1c(-c2ccccc2)nc(=O)[nH]c1SCC(=O)O [Compound 131, 2-((5-cyano-2-oxo-6-phenyl-2,3-dihydropyrimidin-4-yl)thio)acetic acid]",* (2 to 4)
8,"N#Cc1c(SCc2nnn[nH]2)[nH]c(=O)c(Cl)c1-c1cccc(C(=O)Nc2ccccc2)c1 [Compound 123, 3-(6-(((1H-tetrazol-5-yl)methyl)thio)-3-chloro-5-cyano-2-oxo-1,2-dihydropyridin-4-yl)-N-phenylbenzamide]",** (<4 to 6)
